Literature values in patent US8307894B2, “Composition and method for inhibiting the deleterious effects of sulfate reducing bacteria” (priority 2009, dated 2012).
Where two headings read alike, the source gives them in different places.

Tests used:
[1] = tested on: sulfate reducing bacteria; details: government study (12/04)
[2] = not given; remark: listed apart in the source
[3] = tested on: insects and aquatic life including fish

Question: For `[O]=[Mo](=[O])([O-])[O-]` [molybdate], which “inhibition of sulfate reducing bacteria” value [1] is on record?
Answer: The value was “possible candidates as inhibitors”.

Question: Which results are given for `C=C(C)[C@H]1Cc2c(ccc3c2O[C@@H]2COc4cc(OC)c(OC)cc4[C@@H]2C3=O)O1` [rotenone]?
Answer: Solubility (in ethanol): slightly soluble; Solubility (in ether and acetone): Soluble; lifetime in the environment ([2]; breaks down when exposed to sunlight): six; persistence in water ([2]; in water): six; toxicity [3]: extremely toxic; toxicity (humans and other mammals): mildly toxic
